Tests used:
Swiss mice [1] = assay: elevated T maze test (inhibitory avoidance and escape from the open arms); assay type: in vivo; set-up: Escape: unit not given here; conditions: for Escape / Inhibitory avoidances E1 / Inhibitory avoidances E2 / Inhibitory avoidances E3 / Inhibitory avoidances E4 / Inhibitory avoidances LB (basal latency): acute, average ± EPM; for Escape: departure time from open arm; for Inhibitory avoidances E1 / Inhibitory avoidances E2 / Inhibitory avoidances E3 / Inhibitory avoidances E4 / Inhibitory avoidances LB (basal latency): latency, maximum 300 seconds
Method: (§1) Swiss mice weighing 25-35 g from the central animal laboratory of the Sao Paulo State University (UNESP/Araraquara) were used. The animals were housed in groups of 10-12 animals, in polypropylene cages with wood shavings on the floor, with food and water available ad […]]. The animal laboratory was maintained under constant temperature 22±1° C., the lighting was controlled in 12-hour cycles from 7:00 am to 7:00 pm and the humidity was kept at between 50-60%. The pharmacological evaluation was performed with extract, standard drug and vehicle. Accordingly, lyophilized hydroalcoholic extract (50, 100, 200 and 400 mg/kg) was used, in addition to F2 (3, 6, 10, 17 and 30 mg/kg) and the alkaloids erythrartine, erythravine and 11-OH-erythravine (3 and 10 mg/kg), administered via oral intake by gavage. The standard drug used was Diazepam (DZP) in a dose of 2 mg/kg (via intraperitoneal, i.p). All solutions were prepared on the day of the experiment with sodium […] 0.9% and sonicated for 15 minutes and the diazepam in a solution of sodium […] 0.9% and Tween-80. The experiments were carried out between 11:00 am and 5:00 pm, and the experiment apparatus and procedures are described ahead. The elevated T maze is made with transparent glass walls and wooden floor and consists of a closed arm (30×5×15 cm) perpendicularly linked to two open arms (30×5×0.25 cm), raised at 38.5 cm above the floor by a wooden support. In this test, five consecutive measures of inhibitory avoidance were performed (basal latency, avoidances 1, 2, 3 and 4) and one measure of escape from the open arms, with intervals of 30 seconds between each attempt. In the avoidance measures, the animals were placed in the distal section of the closed arm and the exit latency of this arm, on all four paws, towards the open arm was timed. In the escape measure, the animals were placed in the extremity of the right-hand open arm and the departure time from this arm was measured. The animals' maximum length of stay in the arms of the maze during these measures was 300 seconds. The apparatus was cleaned with ethanol 20% after testing each animal. In order to avoid false positives or negatives, immediately after testing in the elevated T maze, the animals were submitted to the locomotive activity test in the arena. The apparatus consists of a white polypropylene box with a rectangular base (40×48 cm), surrounded by 30 cm high walls. The floor is subdivided into 30 squares (8×8 cm). In this test, the animals were placed in the center of the box and their activity was video recorded for five minutes, for subsequent analysis of the number of crossings of the quadrant areas and number of stretch-attend postures (WALSH and CUMMINS, 1976).
(§2) All the results from the animal models were initially submitted to the Levene homogeneity test. The heterogeneous results were converted into a logarithmic scale and later analyzed statistically. The results obtained from the elevated T maze were submitted to a two-way analysis of variance (ANOVA), with treatment being an independent factor and attempts being a dependent factor. […] The results obtained with the arena were submitted to a one-way ANOVA followed by the Duncan post hoc test. Amounts p≦0.05 were considered to be significant results.

Swiss mice [2] = assay: locomotive activity test in the arena; assay type: in vivo; conditions: for Crossings / Stretch-attend postures: acute, number in five minutes, average ± EPM
Method: as §1, §2

[3] = system: serotonergic 3 receptor (5-HT3); conditions: in vitro test (ELSELÈ et al., 1993); cited from earlier work

## COc1cc2c(cc1OC)[C@]13C[C@@H](O)C=CC1=CCN3C[C@H]2O [11-OH-erythravine, 11-hydroxy-erythravine]
Swiss mice [1]; 3 mg/kg oral by gavage
  Escape: 21.5 ± 3.7
  Inhibitory avoidances E1: 41.8 ± 14.2
  Inhibitory avoidances E2: 96.0 ± 34.4
  Inhibitory avoidances E3: 132.3 ± 39.7
  Inhibitory avoidances E4: 194.4 ± 39.5
  Inhibitory avoidances LB (basal latency): 30.7 ± 5.8
Swiss mice [1]; 10 mg/kg oral by gavage
  Escape: 26.8 ± 4.8
  Inhibitory avoidances E1: 30.0 ± 6.1
  Inhibitory avoidances E2: 54.0 ± 21.1
  Inhibitory avoidances E3: 66.6 ± 30.3
  Inhibitory avoidances E4: 94.8 ± 31.7
  Inhibitory avoidances LB (basal latency): 22.6 ± 3.5
Swiss mice [1]; acute treatment, 3 and 10 mg/kg oral, result in words
  performance in the inhibitory avoidance task: impaired the performance of the animals in the inhibitory avoidance task
Swiss mice [2]; 3 mg/kg oral by gavage
  Crossings: 158.5 ± 7.12
  Stretch-attend postures: 27.7 ± 3.20
Swiss mice [2]; 10 mg/kg oral by gavage
  Crossings: 126.5 ± 12.71
  Stretch-attend postures: 22.4 ± 3.50
Swiss mice [2]; 3 and 10 mg/kg oral, one-way ANOVA, result in words
  locomotive activity (number of crossings and stretch-attend postures): none of the doses of 11-OH-erythravine used altered the locomotive activity

## CO[C@H]1CC=C2CCN3CCC4=C(CC(=O)OC4)[C@]23C1 [DHBE, dihydro-β-erythroidine]
[3]
  action at 5-HT3 receptor: serotonergic 3 antagonist receptor (5-HT3)

## CN1C(=O)CN=C(c2ccccc2)c2cc(Cl)ccc21 [DZP, Diazepam, reference compound]
Swiss mice [1]; DZP 2 mg/kg i.p.
  Escape: 19.0 ± 3.2
  Inhibitory avoidances E1: 15.3 ± 3.8
  Inhibitory avoidances E2: 12.25 ± 1.6
  Inhibitory avoidances E3: 22.3 ± 7.7
  Inhibitory avoidances E4: 24.2 ± 7.3
  Inhibitory avoidances LB (basal latency): 24.6 ± 4.1
Swiss mice [2]; DZP 2 mg/kg i.p.
  Crossings: 154.6 ± 19.48
  Stretch-attend postures: 19.13 ± 2.03
